{
  "source": "paper PMC9706563",
  "about": "“Development of Macrocyclic PRMT5–Adaptor Protein Interaction Inhibitors” (Journal of Medicinal Chemistry, 2022)",
  "key": {"[1]": {"experiment": "Stability assay in cell lysate", "type": "in vitro ADME", "procedure": "To the whole cell lysate prepared from U2OS cells with the freeze–thaw method was added the appropriate peptide, resulting in a mixture of 0.5 mg/mL protein and 600 μM peptide in PBS, and incubated at 37 °C. The samples were taken at 0, 15, 30 min, 1, 2, 4 h, 1, 3, and 7-days time points and mixed with an equal volume of ice-cold ethylparaben solution in MeOH (0.1 mg/mL), used as the internal standard. The samples were kept on ice for 15 min and centrifuged at 16,873 × g at 4 °C for 5 min. The obtained supernatant was then analyzed by HPLC, the peptide and the internal standard peaks at 210 nm were integrated, and the ratio of the peptide peak surface area to the internal standard was calculated. The experiment was conducted in duplicate."}, "[2]": {"target": "T1, PRMT5-MEP50 (Homo sapiens, UniProt O14744)", "T1 construct": "The compounds were tested by means of FP with the full-length PRMT5-MEP50 complex; made in house", "T1 sequence (O14744 whole entry)": "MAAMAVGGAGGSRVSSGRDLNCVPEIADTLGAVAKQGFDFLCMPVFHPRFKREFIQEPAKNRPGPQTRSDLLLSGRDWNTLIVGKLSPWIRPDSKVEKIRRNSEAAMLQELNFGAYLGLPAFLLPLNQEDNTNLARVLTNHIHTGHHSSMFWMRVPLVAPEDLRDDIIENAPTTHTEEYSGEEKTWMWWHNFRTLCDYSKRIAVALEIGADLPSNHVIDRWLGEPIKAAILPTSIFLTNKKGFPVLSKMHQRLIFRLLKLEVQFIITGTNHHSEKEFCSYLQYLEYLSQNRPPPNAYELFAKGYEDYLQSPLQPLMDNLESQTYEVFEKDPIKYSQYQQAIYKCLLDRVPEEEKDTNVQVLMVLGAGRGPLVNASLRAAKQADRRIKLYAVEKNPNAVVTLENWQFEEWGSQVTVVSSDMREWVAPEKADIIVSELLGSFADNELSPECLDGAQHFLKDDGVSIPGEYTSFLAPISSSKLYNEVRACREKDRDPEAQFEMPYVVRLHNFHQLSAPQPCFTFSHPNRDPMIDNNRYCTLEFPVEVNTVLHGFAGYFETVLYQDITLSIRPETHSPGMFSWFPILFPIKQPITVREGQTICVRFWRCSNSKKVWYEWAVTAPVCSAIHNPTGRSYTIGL", "T1 sequence (Q9BQA1 whole entry partner)": "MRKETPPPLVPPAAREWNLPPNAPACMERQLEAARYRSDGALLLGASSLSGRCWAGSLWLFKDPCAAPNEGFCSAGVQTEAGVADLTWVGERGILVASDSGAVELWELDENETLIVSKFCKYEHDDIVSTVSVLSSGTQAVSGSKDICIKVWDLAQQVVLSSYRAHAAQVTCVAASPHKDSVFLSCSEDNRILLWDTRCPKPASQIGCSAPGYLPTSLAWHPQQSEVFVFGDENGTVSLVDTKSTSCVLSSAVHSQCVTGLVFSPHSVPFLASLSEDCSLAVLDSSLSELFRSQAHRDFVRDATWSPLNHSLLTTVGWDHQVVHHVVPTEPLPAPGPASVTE", "experiment": "Competitive binding FP assay, compound 21 as tracer", "procedure": "(§1) The competitive binding assay was performed in a buffer of 50 mM HEPES, 250 mM NaCl, 1 mM TCEP, and 0.01% (v/v) Tween 20, 8.0 pH, in black, 384-well plates with a total volume of 10 μL per well. The FITC-labeled peptides or the Alexa 488-labeled pICln protein, at a final concentration of 1 nM, were mixed with PRMT5-MEP50 (at a final concentration of 194 nM when used with peptide 50, 600 nM with compound S1 [see Table S3] and 21, and 27 nM in the case of Alexa 488-labeled pICln), and the appropriate nonlabeled peptide or protein was titrated as two-fold dilution series. The plates were incubated at room temperature for up to 1 h 45 min and analyzed on a plate reader using 485 nm excitation and 535 nm emission wavelength. The experiment was performed in triplicate."}, "[3]": {"target": "T1, PRMT5-MEP50", "experiment": "MTase-Glo methyltransferase activity assay", "type": "biochemical", "conditions": "H4 histone tail peptide substrate", "method": "The assay was performed in 1× reaction buffer of 20 mM Tris, 50 mM NaCl, 1 mM EDTA, 3 mM MgCl2, 0.1 mg/mL BSA, and 1 mM DTT at pH = 8.0 in white, 384-well plates. […] The plate was incubated at 20–21 °C for 1 h. MTase-Glo detection solution (5 μL) was added, and the plate was incubated at 20–21 °C for 1 h, followed by a luminescence measurement at a plate reader. The experiment was performed in triplicate."}, "[4]": {"target": "T2, PRMT5-MEP50 + pICln (Homo sapiens, UniProt O14744)", "T2 construct": "made in house", "T2 sequence (O14744 whole entry)": "as the sequence (O14744 whole entry) above", "T2 sequence (Q9BQA1 whole entry partner)": "as the sequence (Q9BQA1 whole entry partner) above", "experiment": "Competitive FP assay with Alexa 488-labeled full-length human pICln", "type": "binding", "conditions": "competition with labeled pICln; supplementary CSV; read-out: PRMT5-MEP50 + pICln IC50", "procedure": "To a solution of the full-length pICln protein (ca. 1 mg/mL) in 0.2 M bicarbonate buffer with 1 mM TCEP at pH 8.3 was added 10 mM Alexa […] in DMSO (8 equiv). The solution was kept on ice under dark conditions overnight. The protein was washed 8–10 times with a buffer intended for the fluorescence polarization assay (50 mM HEPES, 250 mM NaCl, 1 mM TCEP, 8.0 pH) using an Amicon Ultra-0.5 mL spin filter (Merck, Germany). Protein concentration was determined using the NanoDrop spectrophotometer.\nThe competitive binding assay was performed in a buffer of 50 mM HEPES, 250 mM NaCl, 1 mM TCEP, and 0.01% (v/v) Tween 20, 8.0 pH, in black, 384-well plates with a total volume of 10 μL per well. […] The plates were incubated at room temperature for up to 1 h 45 min and analyzed on a plate reader using 485 nm excitation and 535 nm emission wavelength. The experiment was performed in triplicate."}, "[5]": {"target": "T1, PRMT5-MEP50", "experiment": "Competitive binding FP assay, FITC-labeled 50 as tracer", "conditions": "competitive FP, compound 50 as tracer, 194 nM PRMT5-MEP50", "procedure": "as §1"}, "[6]": {"target": "T3, TIM-MEP50 complex (Homo sapiens, UniProt O14744)", "T3 construct": "made in house", "T3 sequence (O14744 13-292 limits assumed)": "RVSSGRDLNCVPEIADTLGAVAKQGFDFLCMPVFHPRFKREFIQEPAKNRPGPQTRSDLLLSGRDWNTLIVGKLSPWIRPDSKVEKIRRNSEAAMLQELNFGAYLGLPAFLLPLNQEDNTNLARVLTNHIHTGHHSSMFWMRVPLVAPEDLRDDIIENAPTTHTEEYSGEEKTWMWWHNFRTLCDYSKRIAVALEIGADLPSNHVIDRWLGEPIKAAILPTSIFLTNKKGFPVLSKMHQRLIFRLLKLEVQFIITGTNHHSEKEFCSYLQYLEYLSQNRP", "T3 sequence (Q9BQA1 whole entry partner)": "as the sequence (Q9BQA1 whole entry partner) above", "experiment": "Thermal shift assay (TSA)", "type": "binding", "conditions": "for TSA Average Tm (°C): supplementary CSV", "procedure": "Thermal Shift Assays of peptides on the TIM-MEP50 complex were carried out in a 96-well PCR plate (LightCycler 480 Multiwell Plates 96, white, 04729692001). The purified protein complex was appropriately diluted in a buffer containing 50 mM HEPES (pH = 8.0), 250 mM NaCl, and 1 mM TCEP. All assay experiments used 5.36 μg of protein per well and […] 5000X Sypro Orange (Invitrogen) up to a total volume of 25 μL, with a resultant protein concentration of 3 μM and 5X SYPRO. Peptides were supplied at 10 mM concentration in DMSO. The PCR plates were sealed with an optical seal (LightCycler 480 Sealing Foil, 04729757001), shaken, and centrifuged after protein and compounds were added. Thermal scanning (25–95 °C at 1 °C/min) was performed using a real-time PCR setup (LightCycler 480 – Roche), and fluorescence intensity was measured after every temperature increment step. Analysis of the raw data was performed using internally developed software. Statistical validation of Tm shift relevance was performed using the Student’s t test (n = 6)."}, "[7]": {"target": "T4, PRMT5-MEP50 complex (Homo sapiens, UniProt O14744)", "T4 construct": "endogenous in cells; host or cells: MCF7", "T4 sequence (O14744 whole entry)": "as the sequence (O14744 whole entry) above", "T4 sequence (Q9BQA1 whole entry partner)": "as the sequence (Q9BQA1 whole entry partner) above", "experiment": "Pull-down with peptides immobilized on DBCO beads, MCF7 cell lysate", "type": "binding", "conditions": "for enrichment of the PRMT5-MEP50 complex by immobilized peptide: MCF7 cell lysate, DBCO beads, western blot", "procedure": "DBCO agarose beads (300 μL; Jena Bioscience, Germany) were washed three times with PBS (600 μL, pH 7.4). To the beads suspended in PBS (600 μL) was added a 10 mM solution of azide-labeled peptide in DMSO or pure DMSO. The obtained suspensions were incubated overnight at 4 °C. The beads were washed with PBS three times for 10 min. MCF7 cells were harvested and lysed using Triton X100 lysis buffer (NaCl 150 mM, HEPES 25 mM, TCEP 1 mM, 1% Triton x100, 1% NP40 alternative, protease, and phosphatase inhibitor, pH 7.4). Empty beads, beads bound to an active peptide (55), or beads bound to a scrambled peptide (56) were added to the lysate (6 mg/mL) and rotated at 4 °C overnight. Beads attached to the active peptides were also incubated in the lysate containing a nonimmobilized/free active macrocycle (53 at 100 μM). Beads were collected by centrifugation (800g for 1 min) and washed three times for 10 min with PBS (500 μL). The beads were suspended in SDS-PAGE protein loading buffer (20 uL; […], 8% v/v glycerol, 2% SDS, […] (DTE), 0.02% bromophenol blue, pH 6.8), heated with shaking for 10 min at 95 °C, and centrifuged at 350 rpm. The obtained solutions were analyzed by western blotting using 10% acrylamide gels, and PVDF membranes and the relevant proteins were fluorescently detected using antibodies against PRMT5 and MEP50 and the corresponding secondary IRDye antibodies."}, "[8]": {"target": "T5, PRMT5-MEP50 / pICln interaction (Homo sapiens, UniProt O14744)", "T5 construct": "expressed in transfected cells; host or cells: Flp-In T-REx 293", "T5 sequence (O14744 whole entry)": "as the sequence (O14744 whole entry) above", "T5 sequence (Q9BQA1 whole entry partner)": "as the sequence (Q9BQA1 whole entry partner) above", "experiment": "GFP immunopurification from Flp-In T-REx 293 S100 extracts, pICln readout", "type": "binding", "conditions": "50 μM", "procedure": "(§2) Harvested Flp-In T-Rex 293 cells were incubated with Roeder A buffer[32] in three times sample weight for 10 min at room temperature, dounced 10 times, and adjusted to 150 mM NaCl. After centrifugation at 17,000 g for 30 min, the supernatants (S100 extracts) were used for immunopurification and treatment with inhibitors.\n(§3) For the treatment, the S100 extracts of GFP, GFP-PRMT5, GFP-RioK1, and GFP-pICln were incubated with DMSO, active 53, and scrambled 54, used at a concentration of 50 μM. The incubation with the S100 extract was carried out for 1 h at room temperature. For GFP immunopurification, S100 extracts were incubated with GFP-Trap_A beads (ChromoTek) at 4 °C for 2 h with rotation. Purified proteins were washed 3 times with washing buffer (150 mM NaCl, 50 mM Tris/HCl pH 7.5, 1 mM EDTA, 1 mM EGTA, and 0.01% Igepal with protease inhibitors), eluted in sample buffer [375 mM Tris pH 7.5; 25.8% (w/v) glycerol; 12.3% (w/v) SDS; 0.06% (w/v) bromophenol blue; and 6% (v/v) β-mercaptoethanol; pH 6.8], and analyzed by immunoblotting.\n(§4) Immunopurification samples were separated by Tris/Tricine or Tris/Glycine SDS gel electrophoresis[33] and transferred to PVDF membranes (Immobilon-FL, Merck Millipore). The immunoblot analysis was performed using the indicated antibodies against RioK1, PRMT5, MEP50, pICln, and GFP, and the signals were detected with an Odyssey LI-COR Imaging System."}, "[9]": {"target": "T6, PRMT5-MEP50 / RioK1 interaction (Homo sapiens, UniProt O14744)", "T6 construct": "expressed in transfected cells; host or cells: Flp-In T-REx 293", "T6 sequence (O14744 whole entry)": "as the sequence (O14744 whole entry) above", "T6 sequence (Q9BQA1 whole entry partner)": "as the sequence (Q9BQA1 whole entry partner) above", "experiment": "GFP immunopurification from Flp-In T-REx 293 S100 extracts, RioK1 readout", "type": "binding", "conditions": "50 μM", "procedure": "as §2, §3, §4"}},
  "note": "Entries after “also recorded” stand apart in the source; their conditions may differ.",
  "data": [
    {"smiles": "CC(=O)N[C@H](C(=O)N1CCC[C@H]1C(=O)NC1CCCCC[C@@H](C(=O)N[C@@H](CC(=O)O)C(=O)N[C@@H](C)C(=O)N[C@@H](CC(=O)O)C(N)=O)NC(=O)[C@H](Cc2ccccc2)NC(=O)[C@H](CCC(N)=O)NC1=O)C(C)C", "note": "(stereo in doubt) [Compound 30]", "values": [
      {"measurement": "half-life", "setting": "[1]; U2OS cell lysate, 37 °C, 600 μM peptide, read-out: half-life (converted)", "value": 12.5, "unit": "days"},
      {"measurement": "increase of half-life over the linear 31", "setting": "[1]; cell lysate, 37 °C", "value": 70, "unit": "fold"},
      {"measurement": "Half-llife in Lysate", "setting": "[1]; supplementary CSV", "value": 12.5, "unit": "days"},
      {"measurement": "IC50", "setting": "[2]; competitive FP, compound 21 as tracer, 600 nM PRMT5-MEP50", "value": "1.17 ± 0.29", "unit": "µM"},
      {"measurement": "Ki", "setting": "[2]; from competitive FP with tracer 21", "value": "0.313 ± 0.121", "unit": "µM"},
      {"measurement": "effect on direct methylation activity of PRMT5", "setting": "[3]", "value": "has no effect; also recorded: does not interfere with the direct methylation activity of the enzyme"},
      {"measurement": "IC50", "setting": "[4]", "value": "3.2 ± 2.4", "unit": "µM"},
      {"measurement": "IC50", "setting": "[5]", "value": "1.06 ± 0.24", "unit": "µM"},
      {"measurement": "TSA Average Tm (°C)", "setting": "[6]", "value": "51.32 ± 0.00", "unit": "°C"}
    ]},
    {"smiles": "CC(=O)N[C@H](C(=O)N1CCC[C@H]1C(=O)NC1CCCCC[C@@H](C(=O)N[C@@H](CC(=O)O)C(=O)N[C@@H](C)C(=O)N[C@@H](CC(C(=O)O)C(=O)O)C(N)=O)NC(=O)[C@H](Cc2ccc([N+](=O)[O-])cc2)NC(=O)[C@H](CCC(N)=O)NC1=O)C(C)C", "note": "(stereo in doubt) [Compound 53]", "values": [
      {"measurement": "competition of free peptide with immobilized 55", "setting": "[7]; 100 μM nonimmobilized peptide in MCF7 lysate", "value": "demonstrated competition between the immobilized and free peptide"},
      {"measurement": "binding of pICln to the complex with GFP-PRMT5", "setting": "[8]; GFP-PRMT5 IP", "value": "binding of pICln to the complex was not inhibited"},
      {"measurement": "interaction of pICln with PRMT5-MEP50", "setting": "[8]; GFP-pICln IP", "value": "pICln still engaged with it"},
      {"measurement": "enrichment of RioK1 with GFP-PRMT5", "setting": "[9]; GFP-PRMT5 IP", "value": "enrichment of RioK1 was blocked"},
      {"measurement": "interaction of RioK1 with PRMT5-MEP50", "setting": "[9]; GFP-RioK1 IP", "value": "fully inhibited RioK1 from interacting with the PRMT5-MEP50 complex"},
      {"measurement": "increase of the average melting temperature", "setting": "[6]; TSA, PRMT5 TIM barrel-MEP50 complex, n = 6", "value": 2.27, "unit": "°C"},
      {"measurement": "TSA Average Tm (°C)", "setting": "[6]", "value": "51.75 ± 0.42", "unit": "°C"}
    ]},
    {"smiles": "CC(=O)N[C@H](C(=O)N1CCC[C@H]1C(=O)N[C@@H]1CCCCC[C@@H](C(=O)N[C@@H](CC(=O)O)C(=O)N[C@@H](C)C(=O)N[C@@H](CC(C(=O)O)C(=O)O)C(=O)N[C@@H](CCCCNC(=O)COCCOCCOCCN=[N+]=[N-])C(N)=O)NC(=O)[C@H](Cc2ccc([N+](=O)[O-])cc2)NC(=O)[C@H](CCC(N)=O)NC1=O)C(C)C", "note": "[Compound 55]", "values": [
      {"measurement": "enrichment of the PRMT5-MEP50 complex by immobilized peptide", "setting": "[7]", "value": "successfully enriched the PRMT5-MEP50 complex"}
    ]},
    {"smiles": "CC(=O)N1CCC[C@H]1C(=O)N[C@H](C(=O)N[C@@H]1CCCCC[C@@H](C(=O)N[C@@H](Cc2ccc([N+](=O)[O-])cc2)C(=O)N[C@@H](CC(C(=O)O)C(=O)O)C(=O)N[C@@H](CCC(N)=O)C(=O)N[C@@H](CCCCNC(=O)COCCOCCOCCN=[N+]=[N-])C(N)=O)NC(=O)[C@H](CC(=O)O)NC(=O)[C@H](C)NC1=O)C(C)C", "note": "[Compound 56]", "values": [
      {"measurement": "enrichment of the PRMT5-MEP50 complex by immobilized peptide", "setting": "[7]", "value": "did not show significant interaction"}
    ]},
    {"smiles": "O=C(NC[C@H](O)CN1CCc2ccccc2C1)c1cc(NC2COC2)ncn1", "note": "[EPZ015666, reference compound]", "values": [
      {"measurement": "effect on direct methylation activity of PRMT5", "setting": "[3]", "value": "is able to inhibit"}
    ]}
  ]
}
